Source: ChEMBL document CHEMBL1201862, “PubChem BioAssay data set” (2004)
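Compound exposure: 48 hours, 5 concentrations, 96-well plates. GI50 is the concentration that inhibits growth by half.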 Calls of active or inactive are those of the source. Rule as the data show it: active = GI50 up to about 1.1 µM and inactive = higher.

Tests used:
Experiment in all cases: growth of human tumour cells (NCI), 48 h
786-0 = tested on: 786-0
A498 = tested on: A498
A549 = tested on: A549
ACHN = tested on: ACHN
BT-549 = tested on: BT-549
CAKI-1 = tested on: CAKI-1
CCRF-CEM = tested on: CCRF-CEM
COLO 205 = tested on: COLO 205
DU-145 = tested on: DU-145
EKVX = tested on: EKVX
HCC 2998 = tested on: HCC 2998
HCT-116 = tested on: HCT-116
HCT-15 = tested on: HCT-15
HOP-62 = tested on: HOP-62
HOP-92 = tested on: HOP-92
HT-29 = tested on: HT-29
Hs-578T = tested on: Hs-578T
IGROV-1 = tested on: IGROV-1
K562 = tested on: K562
KM12 = tested on: KM12
LOX IMVI = tested on: LOX IMVI
M14 = tested on: M14
MCF7 = tested on: MCF7
MDA-MB-231 = tested on: MDA-MB-231
MDA-MB-435 = tested on: MDA-MB-435
MDA-N = tested on: MDA-N
MOLT-4 = tested on: MOLT-4
Malme-3M = tested on: Malme-3M
NCI-H226 = tested on: NCI-H226
NCI-H23 = tested on: NCI-H23
NCI-H460 = tested on: NCI-H460
NCI-H522 = tested on: NCI-H522
NCI/ADR-RES = tested on: NCI/ADR-RES
OVCAR-3 = tested on: OVCAR-3
OVCAR-4 = tested on: OVCAR-4
OVCAR-5 = tested on: OVCAR-5
OVCAR-8 = tested on: OVCAR-8
PC-3 = tested on: PC-3
RPMI-8226 = tested on: RPMI-8226
RXF 393 = tested on: RXF 393
SF-268 = tested on: SF-268
SF-295 = tested on: SF-295
SF-539 = tested on: SF-539
SK-MEL-28 = tested on: SK-MEL-28
SK-MEL-2 = tested on: SK-MEL-2
SK-MEL-5 = tested on: SK-MEL-5
SK-OV-3 = tested on: SK-OV-3
SN12C = tested on: SN12C
SNB-19 = tested on: SNB-19
SNB-75 = tested on: SNB-75
SR = tested on: SR
SW-620 = tested on: SW-620
T47D = tested on: T47D
TK-10 = tested on: TK-10
U-251 = tested on: U-251
UACC-257 = tested on: UACC-257
UACC-62 = tested on: UACC-62
UO-31 = tested on: UO-31
HL-60 = tested on: HL-60

Cc1cn([C@H]2C[C@@H](N3C(=O)c4ccccc4C3=O)[C@@H](CO[Si](C)(C)C(C)(C)C)O2)c(=O)[nH]c1=O
GI50 (786-0): 26.9 µM (inactive)
GI50 (A498): > 100 µM (inactive)
GI50 (A549): 85.5 µM (inactive)
GI50 (ACHN): 62.7 µM (inactive)
GI50 (BT-549): > 100 µM (inactive)
GI50 (CAKI-1): 53.3 µM (inactive)
GI50 (CCRF-CEM): 36 µM (inactive)
GI50 (COLO 205): > 100 µM (inactive)
GI50 (DU-145): > 100 µM (inactive)
GI50 (EKVX): 75.2 µM (inactive)
GI50 (HCC 2998): > 100 µM (inactive)
GI50 (HCT-116): 49.2 µM (inactive)
GI50 (HCT-15): > 100 µM
GI50 (HOP-62): 20.7 µM (inactive)
GI50 (HOP-92): 48.6 µM (inactive)
GI50 (HT-29): 20.4 µM (inactive)
GI50 (Hs-578T): 21.2 µM (inactive)
GI50 (IGROV-1): 55 µM (inactive)
GI50 (K562): 52.5 µM (inactive)
GI50 (KM12): 91.6 µM (inactive)
GI50 (LOX IMVI): > 100 µM (inactive)
GI50 (M14): > 100 µM (inactive)
GI50 (MCF7): 46 µM (inactive)
GI50 (MDA-MB-231): 70.3 µM (inactive)
GI50 (MDA-MB-435): > 100 µM (inactive)
GI50 (MDA-N): > 100 µM (inactive)
GI50 (MOLT-4): 36.9 µM (inactive)
GI50 (Malme-3M): 87.3 µM (inactive)
GI50 (NCI-H226): 57.1 µM (inactive)
GI50 (NCI-H23): 31.6 µM (inactive)
GI50 (NCI-H460): > 100 µM (inactive)
GI50 (NCI-H522): 50.4 µM (inactive)
GI50 (NCI/ADR-RES): 43.3 µM (inactive)
GI50 (OVCAR-3): > 100 µM (inactive)
GI50 (OVCAR-4): > 100 µM (inactive)
GI50 (OVCAR-5): > 100 µM (inactive)
GI50 (OVCAR-8): 32.5 µM (inactive)
GI50 (PC-3): > 100 µM (inactive)
GI50 (RPMI-8226): > 100 µM (inactive)
GI50 (RXF 393): 19.7 µM (inactive)
GI50 (SF-268): 30.6 µM (inactive)
GI50 (SF-295): 37 µM (inactive)
GI50 (SF-539): 27.5 µM (inactive)
GI50 (SK-MEL-28): > 100 µM (inactive)
GI50 (SK-MEL-2): 46.8 µM (inactive)
GI50 (SK-MEL-5): > 100 µM (inactive)
GI50 (SK-OV-3): 30.1 µM (inactive)
GI50 (SN12C): > 100 µM (inactive)
GI50 (SNB-19): 29.3 µM (inactive)
GI50 (SNB-75): 24 µM (inactive)
GI50 (SR): 36.7 µM (inactive)
GI50 (SW-620): > 100 µM (inactive)
GI50 (T47D): > 100 µM (inactive)
GI50 (TK-10): > 100 µM (inactive)
GI50 (U-251): 34.9 µM (inactive)
GI50 (UACC-257): > 100 µM (inactive)
GI50 (UACC-62): 23.8 µM (inactive)
GI50 (UO-31): 52.5 µM (inactive)

CN1CC(c2ccccc2)C(O)(C2(c3ccccc3)CN(C)CC(c3ccccc3)C2=O)C(c2ccccc2)C1 (configuration not stated)
GI50 (786-0): > 100 µM (inactive)
GI50 (A498): 91.2 µM (inactive)
GI50 (A549): > 100 µM (inactive)
GI50 (ACHN): > 100 µM (inactive)
GI50 (BT-549): > 100 µM (inactive)
GI50 (CAKI-1): > 100 µM (inactive)
GI50 (COLO 205): 93.3 µM (inactive)
GI50 (DU-145): > 100 µM (inactive)
GI50 (EKVX): > 100 µM (inactive)
GI50 (HCT-116): 75.3 µM (inactive)
GI50 (HCT-15): > 100 µM
GI50 (HL-60): 22.4 µM (inactive)
GI50 (HOP-62): 77.1 µM (inactive)
GI50 (HOP-92): 50.1 µM (inactive)
GI50 (HT-29): > 100 µM (inactive)
GI50 (Hs-578T): 23.1 µM (inactive)
GI50 (IGROV-1): > 100 µM (inactive)
GI50 (K562): > 100 µM (inactive)
GI50 (KM12): > 100 µM (inactive)
GI50 (LOX IMVI): > 100 µM (inactive)
GI50 (M14): > 100 µM (inactive)
GI50 (MCF7): > 100 µM (inactive)
GI50 (MDA-MB-231): > 100 µM (inactive)
GI50 (MDA-MB-435): > 100 µM (inactive)
GI50 (MDA-N): > 100 µM (inactive)
GI50 (MOLT-4): > 100 µM (inactive)
GI50 (NCI-H226): > 100 µM (inactive)
GI50 (NCI-H23): > 100 µM (inactive)
GI50 (NCI-H460): 45.8 µM (inactive)
GI50 (NCI-H522): > 100 µM (inactive)
GI50 (NCI/ADR-RES): > 100 µM (inactive)
GI50 (OVCAR-3): > 100 µM (inactive)
GI50 (OVCAR-4): > 100 µM (inactive)
GI50 (OVCAR-5): > 100 µM (inactive)
GI50 (OVCAR-8): > 100 µM (inactive)
GI50 (PC-3): > 100 µM (inactive)
GI50 (RPMI-8226): > 100 µM (inactive)
GI50 (SF-268): > 100 µM (inactive)
GI50 (SF-295): 55.2 µM (inactive)
GI50 (SF-539): > 100 µM (inactive)
GI50 (SK-MEL-28): > 100 µM (inactive)
GI50 (SK-MEL-2): > 100 µM (inactive)
GI50 (SK-MEL-5): > 100 µM (inactive)
GI50 (SN12C): > 100 µM (inactive)
GI50 (SNB-19): > 100 µM (inactive)
GI50 (SR): > 100 µM (inactive)
GI50 (SW-620): > 100 µM (inactive)
GI50 (T47D): > 100 µM (inactive)
GI50 (TK-10): > 100 µM (inactive)
GI50 (U-251): > 100 µM (inactive)
GI50 (UACC-257): > 100 µM (inactive)
GI50 (UACC-62): > 100 µM (inactive)
GI50 (UO-31): > 100 µM (inactive)

CCC(c1nc2ccccc2c(=O)n1NC(=O)C(C)(C)C)C1(O)CCCCC1 (configuration not stated)
GI50 (786-0): > 100 µM (inactive)
GI50 (A498): > 100 µM (inactive)
GI50 (A549): > 100 µM (inactive)
GI50 (ACHN): > 100 µM (inactive)
GI50 (BT-549): > 100 µM (inactive)
GI50 (CAKI-1): > 100 µM (inactive)
GI50 (CCRF-CEM): 99.5 µM (inactive)
GI50 (COLO 205): > 100 µM (inactive)
GI50 (DU-145): > 100 µM (inactive)
GI50 (EKVX): > 100 µM (inactive)
GI50 (HCT-116): > 100 µM (inactive)
GI50 (HCT-15): > 100 µM
GI50 (HL-60): > 100 µM (inactive)
GI50 (HOP-62): > 100 µM (inactive)
GI50 (HOP-92): > 100 µM (inactive)
GI50 (HT-29): > 100 µM (inactive)
GI50 (Hs-578T): > 100 µM (inactive)
GI50 (IGROV-1): > 100 µM (inactive)
GI50 (K562): > 100 µM (inactive)
GI50 (KM12): > 100 µM (inactive)
GI50 (M14): > 100 µM (inactive)
GI50 (MCF7): > 100 µM (inactive)
GI50 (MDA-MB-231): > 100 µM (inactive)
GI50 (MDA-MB-435): > 100 µM (inactive)
GI50 (MDA-N): > 100 µM (inactive)
GI50 (MOLT-4): 80.4 µM (inactive)
GI50 (Malme-3M): > 100 µM (inactive)
GI50 (NCI-H226): > 100 µM (inactive)
GI50 (NCI-H23): > 100 µM (inactive)
GI50 (NCI-H460): > 100 µM (inactive)
GI50 (NCI-H522): 67.8 µM (inactive)
GI50 (NCI/ADR-RES): > 100 µM (inactive)
GI50 (OVCAR-3): > 100 µM (inactive)
GI50 (OVCAR-4): > 100 µM (inactive)
GI50 (OVCAR-5): > 100 µM (inactive)
GI50 (OVCAR-8): > 100 µM (inactive)
GI50 (PC-3): > 100 µM (inactive)
GI50 (RPMI-8226): > 100 µM (inactive)
GI50 (RXF 393): > 100 µM (inactive)
GI50 (SF-268): > 100 µM (inactive)
GI50 (SF-295): > 100 µM (inactive)
GI50 (SF-539): > 100 µM (inactive)
GI50 (SK-MEL-28): > 100 µM (inactive)
GI50 (SK-MEL-2): > 100 µM (inactive)
GI50 (SK-MEL-5): > 100 µM (inactive)
GI50 (SK-OV-3): > 100 µM (inactive)
GI50 (SN12C): > 100 µM (inactive)
GI50 (SNB-19): > 100 µM (inactive)
GI50 (SNB-75): > 100 µM (inactive)
GI50 (SR): > 100 µM (inactive)
GI50 (SW-620): > 100 µM (inactive)
GI50 (T47D): > 100 µM (inactive)
GI50 (U-251): > 100 µM (inactive)
GI50 (UACC-257): > 100 µM (inactive)
GI50 (UACC-62): > 100 µM (inactive)
GI50 (UO-31): > 100 µM (inactive)
